Experimental findings from patent US8202696B2, “Means for use in treating diseases correlated with or caused by non-physiological levels of microtubule-associated PP2Ac” (Max-Planck-Gessellschaft zur Forderung der Wissenschaften …, priority 2002, dated 2012) are described below.

The subject of assay [1] is Gli3. Kind of assay: Localization of overexpressed GFP-tagged Gli3 in HeLa cells. The format is cell-based. Particulars: GFP-tagged Gli3-overexpressing HeLa cells. On the procedure: 1×10^5 HELA cells per well of a 6-well plate were transfected with Qiagen Polyfect transfection reagent according to the manufacturer's instructions. The ratio of the amount of DNA to the amount of polyfect transfection reagent was 3 μg DNA/10 μl Polyfect. Constructs used for expression in HELA were the following: GFP-GLI3 (aa 18-1549), GLI3-GFP (aa 1-1522), MYC-GLI3 (aa 18-1596), FLAG-GLI3 (aa18-1596), MYC-B-BOX1 (aa 110-167 of the MID1 protein), ALPHA4-V5 (aa 1-339). 24 h after transfection immunofluorescence was performed. GFP-constructs were treated as described in Schweiger et al., 1999. Immunofluorescence with MYC-tagged and FLAG-tagged constructs was done according to Trockenbacher et al., 2001. FLAG-tagged constructs were detected with anti-FLAG-antibody diluted 1:500, the secondary antibody FITC-antimouse was diluted 1:1000. For MYC-tagged constructs anti-MYC-antibody 1:300 and CY3-antirabbit 1:1000 were used. […]
Overexpressed Gli3 is predominantly localized in the nucleus (FIG. 10, top left).

The target of assay [2] is T1, α4 (Homo sapiens, UniProt P78318).
T1 construct: expressed in transfected cells; host or cells: L40 yeast strain
T1 sequence (P78318 1-339): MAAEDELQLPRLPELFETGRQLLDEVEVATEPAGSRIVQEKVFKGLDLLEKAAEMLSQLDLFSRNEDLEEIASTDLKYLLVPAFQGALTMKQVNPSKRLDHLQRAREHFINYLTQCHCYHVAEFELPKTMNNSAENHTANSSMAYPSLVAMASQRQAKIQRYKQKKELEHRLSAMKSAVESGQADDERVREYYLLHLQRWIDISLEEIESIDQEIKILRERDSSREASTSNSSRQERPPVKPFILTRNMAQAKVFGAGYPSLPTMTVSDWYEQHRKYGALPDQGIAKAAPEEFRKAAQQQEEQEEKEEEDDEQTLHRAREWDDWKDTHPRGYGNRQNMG
Briefly: Yeast two-hybrid interaction of MID1 constructs with α4. The format is binding. On the procedure: Yeast two-hybrid screening. For yeast two-hybrid screening, we cloned full-length MID1 cDNA into the pBTM116 vector. We then cotransfected this with a human fetal brain cDNA Matchmaker library in the pGAD10 vector (Clontech) into the L40 yeast strain. We plated the transformants on synthetic medium lacking histidine, leucine and tryptophan (his^− leu^− trp^−) and containing 3-amino-1,2,4, triazole, and incubated the plates at 30° C. for 5 days. We assayed his-positive colonies for β-galactosidase activity with a filter assay^47. We isolated plasmid DNA from β-galactosidase-positive clones and cotransfected this again into L40 yeast with MID1-pBTM116 and controls. We selected plasmids that produced growth on selective plates only in combination with MID1-pBTM116, which were assumed to code for MID1 interactors, and sequenced them.
Activity of β-galactosidase in yeast liquid cultures. We assayed cells for β-galactosidase activity by the o-nitrophenyl-β-D-galactopyranoside (ONPG) method^47.
MID1 is a multidomain protein harboring a RING finger, two B-boxes, a coiled-coil region, a fibronectin type III domain and a B30.2 domain^3—all of which are candidate regions for specific protein-protein interactions. To clarify which domain specifically binds α4, we tested several deletion mutants of MID1 for interaction with α4 in the yeast two-hybrid system. […]

Where no end group is shown, it is not given here.

Turning to “B-Box1: peptide derived from the MID1 domain that is responsible for α4 binding (amino acids 108-165), expressed from plasmid (ANTMTSAEKVLCQFCDQDPAQDAVKTCVTCEVSYCDECLKATHPNKKPFTGHRLIEPI; cysteine pairing not given here; also: myc tag; UniProt O15344 108-165, looked up, fragment)”, the Gli3 localization result in assay [1] was “significant retention of the active form of Gli3 in the cytosol”. Further, in assay [2], the “Interaction with α4” value was “sufficient for a strong interaction with α4”.
